Results on five compounds are retold here after the supplement of paper PMC12076712.

Holding throughout (assay): pIC50, kinobeads binding competition
One assay concerns the target UniProt Q6XUX3. Conditions: cell material: Lysate mix. An outline of the steps: (§1)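 Fold changes relative to vehicle, from biological duplicates, were fitted with logistic dose-response models in the R drc package to give pIC50. These fold changes came from TMT10 LC-MS/MS quantification of digested Kinobeads-bound proteins. Compound was applied at nine concentrations (top 30 μM) either to live Jurkat cells in 1:4 steps for 60 min at 37 °C before lysis, or to Jurkat lysate or a 1:1:1:1 HEK293/K-562/HepG2/placenta lysate mix in 1:5 steps for 60 min at 4 °C.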

The next assay deals with T1, UHMK1 (UniProt Q8TAS1).
T1 sequence (whole entry): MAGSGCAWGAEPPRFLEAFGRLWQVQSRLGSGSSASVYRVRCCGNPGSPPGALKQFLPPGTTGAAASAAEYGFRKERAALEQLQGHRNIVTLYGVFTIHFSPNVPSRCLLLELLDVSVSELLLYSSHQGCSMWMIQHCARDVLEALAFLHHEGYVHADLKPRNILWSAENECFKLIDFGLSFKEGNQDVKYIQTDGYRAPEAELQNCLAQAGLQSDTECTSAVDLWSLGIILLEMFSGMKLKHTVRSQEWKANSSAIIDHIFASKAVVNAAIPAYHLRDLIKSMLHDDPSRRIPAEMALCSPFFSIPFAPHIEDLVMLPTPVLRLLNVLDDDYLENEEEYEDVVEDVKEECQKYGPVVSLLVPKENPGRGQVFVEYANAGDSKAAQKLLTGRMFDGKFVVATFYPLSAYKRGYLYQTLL
Conditions: cell material: Jurkat lysate. An outline of the steps: as §1

The next assay addresses T2, RIOK1 (UniProt Q9BRS2).
T2 sequence (whole entry): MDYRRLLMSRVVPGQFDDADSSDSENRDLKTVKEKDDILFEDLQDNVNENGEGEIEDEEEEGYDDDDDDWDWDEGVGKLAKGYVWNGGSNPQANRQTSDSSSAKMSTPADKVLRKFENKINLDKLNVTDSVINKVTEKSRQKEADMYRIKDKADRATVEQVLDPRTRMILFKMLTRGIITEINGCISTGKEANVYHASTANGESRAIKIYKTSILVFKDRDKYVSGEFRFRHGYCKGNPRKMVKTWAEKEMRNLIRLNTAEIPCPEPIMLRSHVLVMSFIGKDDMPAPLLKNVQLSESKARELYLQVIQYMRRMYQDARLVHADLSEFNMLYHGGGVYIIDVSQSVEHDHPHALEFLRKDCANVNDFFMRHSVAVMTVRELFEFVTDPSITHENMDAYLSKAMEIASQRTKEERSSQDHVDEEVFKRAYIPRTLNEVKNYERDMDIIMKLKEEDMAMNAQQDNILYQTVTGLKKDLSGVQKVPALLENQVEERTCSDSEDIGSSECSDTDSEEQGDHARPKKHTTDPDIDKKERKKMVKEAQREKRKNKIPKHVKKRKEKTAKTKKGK
An outline of the steps:
as §1

In another assay the target is T3, TXK (UniProt P42681).
T3 sequence (whole entry): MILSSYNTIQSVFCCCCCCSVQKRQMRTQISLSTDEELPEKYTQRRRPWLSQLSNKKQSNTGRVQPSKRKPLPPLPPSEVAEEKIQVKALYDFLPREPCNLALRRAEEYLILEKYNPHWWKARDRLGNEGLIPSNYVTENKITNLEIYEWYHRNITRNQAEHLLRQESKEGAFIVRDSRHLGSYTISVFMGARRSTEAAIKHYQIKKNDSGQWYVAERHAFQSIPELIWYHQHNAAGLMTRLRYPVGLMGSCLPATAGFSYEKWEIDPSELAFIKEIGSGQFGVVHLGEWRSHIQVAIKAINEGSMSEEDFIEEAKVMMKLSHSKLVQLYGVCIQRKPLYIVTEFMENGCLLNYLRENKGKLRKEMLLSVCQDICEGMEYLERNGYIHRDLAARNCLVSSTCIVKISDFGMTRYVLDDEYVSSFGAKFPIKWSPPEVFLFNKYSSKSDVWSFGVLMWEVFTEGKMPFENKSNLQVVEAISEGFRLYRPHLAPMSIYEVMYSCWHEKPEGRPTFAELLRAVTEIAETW
An outline of the steps: as §1

For a further assay, the target named is CAMK1D (UniProt Q8IU85). Put shortly:
as §1

In a further assay the target is UniProt P23443. An outline of the steps:
as §1

The target of a further assay is T4, ITK (UniProt Q08881).
T4 sequence (whole entry): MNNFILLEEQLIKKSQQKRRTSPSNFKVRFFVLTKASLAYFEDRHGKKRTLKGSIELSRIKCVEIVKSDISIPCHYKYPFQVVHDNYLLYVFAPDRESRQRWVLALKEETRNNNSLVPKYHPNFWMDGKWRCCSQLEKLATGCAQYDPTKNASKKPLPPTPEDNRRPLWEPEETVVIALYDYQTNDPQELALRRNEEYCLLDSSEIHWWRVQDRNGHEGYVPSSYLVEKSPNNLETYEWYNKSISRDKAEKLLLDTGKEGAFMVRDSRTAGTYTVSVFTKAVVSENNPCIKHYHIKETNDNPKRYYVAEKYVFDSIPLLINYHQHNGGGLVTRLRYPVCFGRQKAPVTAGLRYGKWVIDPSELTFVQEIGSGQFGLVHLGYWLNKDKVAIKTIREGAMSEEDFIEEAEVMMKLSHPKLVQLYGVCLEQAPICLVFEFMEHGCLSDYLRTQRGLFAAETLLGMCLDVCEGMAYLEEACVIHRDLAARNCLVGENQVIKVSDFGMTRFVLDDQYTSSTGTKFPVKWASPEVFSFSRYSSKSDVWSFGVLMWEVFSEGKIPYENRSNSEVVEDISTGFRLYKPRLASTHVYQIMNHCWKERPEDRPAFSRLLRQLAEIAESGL
Put shortly: as §1

In a further assay the target is TLK2 (UniProt Q86UE8). Conditions: cell material: Jurkat cells. An outline of the steps: as §1
Chain of TLK2 (Q86UE8 whole entry, looked up): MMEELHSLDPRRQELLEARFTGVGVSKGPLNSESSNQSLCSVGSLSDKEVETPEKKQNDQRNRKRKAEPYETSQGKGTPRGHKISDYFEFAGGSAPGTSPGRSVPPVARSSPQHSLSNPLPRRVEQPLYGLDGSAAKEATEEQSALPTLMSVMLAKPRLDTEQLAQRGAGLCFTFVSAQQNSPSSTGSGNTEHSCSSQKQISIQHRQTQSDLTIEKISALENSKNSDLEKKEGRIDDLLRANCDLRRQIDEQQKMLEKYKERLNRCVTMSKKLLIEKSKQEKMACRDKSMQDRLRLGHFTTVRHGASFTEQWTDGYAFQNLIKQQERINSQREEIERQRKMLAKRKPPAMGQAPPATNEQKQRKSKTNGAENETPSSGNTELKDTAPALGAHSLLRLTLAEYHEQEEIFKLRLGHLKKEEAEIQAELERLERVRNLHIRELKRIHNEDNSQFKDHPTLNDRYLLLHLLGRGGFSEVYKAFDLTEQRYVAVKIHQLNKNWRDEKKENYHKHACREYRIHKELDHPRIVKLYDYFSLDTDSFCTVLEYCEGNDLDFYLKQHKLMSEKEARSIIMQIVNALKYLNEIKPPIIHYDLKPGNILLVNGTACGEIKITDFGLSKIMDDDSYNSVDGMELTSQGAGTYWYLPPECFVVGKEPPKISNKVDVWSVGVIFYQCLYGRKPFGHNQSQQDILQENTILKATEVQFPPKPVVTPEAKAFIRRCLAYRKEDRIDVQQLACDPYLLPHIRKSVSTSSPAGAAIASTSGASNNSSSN
A further assay deals with PRKCH (UniProt P24723). An outline of the steps:
as §1

In a further assay the target is RAF1 (UniProt P04049). Put shortly: as §1
Chain of RAF1 (P04049 whole entry): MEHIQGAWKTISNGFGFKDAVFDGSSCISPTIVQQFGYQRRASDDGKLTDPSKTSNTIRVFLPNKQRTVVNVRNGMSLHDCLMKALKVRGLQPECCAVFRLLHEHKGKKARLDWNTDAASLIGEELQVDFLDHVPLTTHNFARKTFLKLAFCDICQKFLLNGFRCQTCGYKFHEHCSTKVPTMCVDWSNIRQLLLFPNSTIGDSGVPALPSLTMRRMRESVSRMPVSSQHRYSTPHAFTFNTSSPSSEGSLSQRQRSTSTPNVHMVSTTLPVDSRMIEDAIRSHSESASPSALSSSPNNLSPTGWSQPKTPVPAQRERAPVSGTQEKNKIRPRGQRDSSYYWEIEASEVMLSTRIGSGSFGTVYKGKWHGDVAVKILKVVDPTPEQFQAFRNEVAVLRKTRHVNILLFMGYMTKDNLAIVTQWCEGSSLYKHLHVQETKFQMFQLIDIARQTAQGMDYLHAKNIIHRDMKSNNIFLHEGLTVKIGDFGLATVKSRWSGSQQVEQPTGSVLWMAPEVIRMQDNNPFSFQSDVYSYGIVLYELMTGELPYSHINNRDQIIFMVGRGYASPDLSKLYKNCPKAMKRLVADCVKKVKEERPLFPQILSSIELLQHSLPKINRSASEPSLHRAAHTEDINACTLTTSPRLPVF
The target in the next assay is TRRAP (UniProt Q9Y4A5). The following applies: cell material: Jurkat cells. An outline of the steps: as §1
A further assay concerns the target RNASEL (UniProt Q05823). Conditions: cell material: Jurkat cells. An outline of the steps: as §1
The next assay has as its target BLK (UniProt P51451). An outline of the steps:
as §1

The next assay concerns the target LZK (UniProt O43283). The following applies: cell material: Lysate mix. An outline of the steps:
as §1

Chain of UniProt P23443 (P23443 whole entry, looked up): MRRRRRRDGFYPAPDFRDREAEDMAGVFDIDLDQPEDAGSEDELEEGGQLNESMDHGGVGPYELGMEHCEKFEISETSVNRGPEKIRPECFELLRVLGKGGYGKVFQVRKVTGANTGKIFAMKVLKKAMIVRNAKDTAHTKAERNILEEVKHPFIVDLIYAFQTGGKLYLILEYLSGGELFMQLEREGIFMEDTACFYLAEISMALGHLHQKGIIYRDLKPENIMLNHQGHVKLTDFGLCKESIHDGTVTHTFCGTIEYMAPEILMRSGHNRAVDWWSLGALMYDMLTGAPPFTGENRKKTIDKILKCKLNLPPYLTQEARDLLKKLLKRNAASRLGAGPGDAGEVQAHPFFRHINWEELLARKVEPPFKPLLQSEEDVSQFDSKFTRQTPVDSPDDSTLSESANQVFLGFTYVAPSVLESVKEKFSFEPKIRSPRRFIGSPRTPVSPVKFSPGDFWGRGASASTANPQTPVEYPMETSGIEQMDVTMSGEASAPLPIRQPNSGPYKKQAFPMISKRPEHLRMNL
Chain of PRKCH (P24723 whole entry, looked up): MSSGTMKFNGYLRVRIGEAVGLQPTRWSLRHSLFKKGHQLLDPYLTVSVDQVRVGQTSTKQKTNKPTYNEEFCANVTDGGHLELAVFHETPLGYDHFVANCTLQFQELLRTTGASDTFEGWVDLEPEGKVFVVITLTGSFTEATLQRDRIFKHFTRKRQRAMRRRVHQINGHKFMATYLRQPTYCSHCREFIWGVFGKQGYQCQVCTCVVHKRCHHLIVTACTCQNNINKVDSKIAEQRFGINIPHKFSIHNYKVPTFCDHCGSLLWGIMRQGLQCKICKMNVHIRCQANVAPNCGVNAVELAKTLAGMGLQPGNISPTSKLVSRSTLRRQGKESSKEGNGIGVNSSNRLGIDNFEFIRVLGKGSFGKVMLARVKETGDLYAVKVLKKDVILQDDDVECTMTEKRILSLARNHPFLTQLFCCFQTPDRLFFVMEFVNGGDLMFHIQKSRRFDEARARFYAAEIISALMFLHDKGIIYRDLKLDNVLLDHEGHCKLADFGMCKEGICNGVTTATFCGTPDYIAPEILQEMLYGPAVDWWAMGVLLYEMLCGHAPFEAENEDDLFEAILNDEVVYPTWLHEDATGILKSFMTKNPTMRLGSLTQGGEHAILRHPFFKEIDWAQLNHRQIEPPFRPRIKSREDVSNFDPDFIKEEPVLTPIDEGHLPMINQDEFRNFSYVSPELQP
Chain of CAMK1D (Q8IU85 whole entry, looked up): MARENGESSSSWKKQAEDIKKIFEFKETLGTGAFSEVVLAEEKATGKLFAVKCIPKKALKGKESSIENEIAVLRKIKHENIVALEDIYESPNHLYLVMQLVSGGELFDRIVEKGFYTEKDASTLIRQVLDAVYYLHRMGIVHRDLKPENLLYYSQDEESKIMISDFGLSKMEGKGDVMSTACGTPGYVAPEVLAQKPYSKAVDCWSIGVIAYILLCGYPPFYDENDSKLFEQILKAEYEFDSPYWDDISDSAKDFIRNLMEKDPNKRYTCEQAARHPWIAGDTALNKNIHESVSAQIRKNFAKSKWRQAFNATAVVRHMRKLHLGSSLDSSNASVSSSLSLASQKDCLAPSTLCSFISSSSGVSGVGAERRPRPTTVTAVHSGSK
Chain of BLK (P51451 whole entry, looked up): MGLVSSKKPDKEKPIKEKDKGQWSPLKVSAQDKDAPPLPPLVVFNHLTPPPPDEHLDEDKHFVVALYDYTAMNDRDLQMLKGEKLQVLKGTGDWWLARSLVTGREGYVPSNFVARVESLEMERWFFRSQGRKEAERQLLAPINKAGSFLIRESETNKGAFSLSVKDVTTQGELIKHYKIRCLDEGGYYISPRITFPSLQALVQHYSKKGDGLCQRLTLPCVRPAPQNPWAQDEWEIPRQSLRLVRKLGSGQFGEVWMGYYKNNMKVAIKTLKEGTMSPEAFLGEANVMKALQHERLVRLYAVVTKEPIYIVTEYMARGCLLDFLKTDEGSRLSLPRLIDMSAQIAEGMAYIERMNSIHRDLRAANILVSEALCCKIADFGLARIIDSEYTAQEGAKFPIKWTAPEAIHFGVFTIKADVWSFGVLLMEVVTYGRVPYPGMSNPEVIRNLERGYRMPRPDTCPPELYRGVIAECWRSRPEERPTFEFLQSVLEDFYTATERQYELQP
Chain of UniProt Q6XUX3 (Q6XUX3 whole entry): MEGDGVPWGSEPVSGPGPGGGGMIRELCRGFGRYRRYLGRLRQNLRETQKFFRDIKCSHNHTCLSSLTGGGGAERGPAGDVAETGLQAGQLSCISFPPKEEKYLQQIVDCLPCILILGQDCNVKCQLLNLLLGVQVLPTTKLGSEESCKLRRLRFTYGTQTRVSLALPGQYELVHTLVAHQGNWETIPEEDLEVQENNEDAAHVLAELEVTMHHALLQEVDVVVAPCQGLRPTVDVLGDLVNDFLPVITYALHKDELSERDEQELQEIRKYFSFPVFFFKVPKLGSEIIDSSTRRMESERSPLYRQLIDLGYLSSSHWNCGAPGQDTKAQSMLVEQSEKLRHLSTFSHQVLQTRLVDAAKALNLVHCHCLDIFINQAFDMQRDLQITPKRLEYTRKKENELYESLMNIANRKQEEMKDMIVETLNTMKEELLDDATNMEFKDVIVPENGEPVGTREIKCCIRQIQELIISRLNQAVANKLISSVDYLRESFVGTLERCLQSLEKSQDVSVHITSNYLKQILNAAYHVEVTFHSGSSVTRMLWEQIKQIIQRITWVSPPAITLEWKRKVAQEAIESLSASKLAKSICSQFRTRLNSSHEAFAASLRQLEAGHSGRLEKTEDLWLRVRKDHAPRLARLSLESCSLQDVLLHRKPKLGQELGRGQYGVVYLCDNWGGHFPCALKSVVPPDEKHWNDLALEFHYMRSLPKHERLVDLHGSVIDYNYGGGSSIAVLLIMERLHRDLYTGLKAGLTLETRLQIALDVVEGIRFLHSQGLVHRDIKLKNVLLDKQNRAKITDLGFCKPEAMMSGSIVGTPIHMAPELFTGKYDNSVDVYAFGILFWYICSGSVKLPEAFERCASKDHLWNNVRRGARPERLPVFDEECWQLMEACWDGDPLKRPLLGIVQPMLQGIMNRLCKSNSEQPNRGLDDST

As for `C#CCNC(=O)c1cc(Nc2cc(C)[nH]n2)nc(N2CCN(Cc3ccc(S(=O)(=O)F)cc3)CC2)n1`, the pIC50 (in general, −log10 of the IC50, conventionally taken in molar units) on UniProt Q6XUX3 is 5.

For the compound `O=C(NCCNC(=O)c1cc(Nc2cc(C3CC3)[nH]n2)nc(N2CCN(Cc3ccc(S(=O)(=O)F)cc3)CC2)n1)OC1CC/C=C/CCC1` (stereo not given), the pIC50 was < 4.52 on UHMK1; < 4.52 at RIOK1 (cell material: Jurkat cells); < 4.52 at RIOK1 (cell material: Jurkat lysate); 5.77 at UniProt Q6XUX3; < 4.52 at TXK (cell material: Jurkat cells); < 4.52 on TXK (cell material: Jurkat lysate). Also, the pIC50 on CAMK1D (cell material: Jurkat cells) is 5.82; at UniProt P23443 (cell material: Jurkat lysate), < 4.52; on ITK (cell material: Jurkat cells) it was 6.7; on ITK (cell material: Jurkat lysate), < 4.52; at TLK2, < 4.52; on PRKCH (cell material: Jurkat cells) it was < 4.52. The pIC50 at PRKCH (cell material: Jurkat lysate) was < 4.52; on RAF1 (cell material: Jurkat cells) it was < 4.52; on RAF1 (cell material: Jurkat lysate), < 4.52; at TRRAP, < 4.52; at RNASEL it was < 4.52; at BLK (cell material: Jurkat cells) it was 6.73. At BLK (cell material: Jurkat lysate), this compound returned a negative-log IC50 (pIC50) of 5.1.

In the case of `CCNC(=O)c1cc(Nc2cc(C3CC3)[nH]n2)nc(N2CCN(Cc3ccc(S(=O)(=O)F)cc3)CC2)n1`, at LZK, the pIC50 was determined as 5.12.

Take `Cc1cc(Nc2cc(C(=O)NCCNC(=O)OC3CC/C=C/CCC3)nc(N3CCN(Cc4ccc(S(=O)(=O)F)cc4)CC3)n2)n[nH]1` (stereo not given): the negative logarithm of the IC50 (pIC50) at LZK was < 4.52.

For the compound `C#CCNC(=O)c1cc(Nc2cc(C3CC3)[nH]n2)nc(N2CCN(Cc3ccc(S(=O)(=O)F)cc3)CC2)n1`, the negative-log IC50 (pIC50) was < 4.52 on UHMK1; < 4.52 at RIOK1 (cell material: Jurkat cells); < 4.52 at RIOK1 (cell material: Jurkat lysate); 5.4 on TXK (cell material: Jurkat cells); < 4.52 on TXK (cell material: Jurkat lysate); 5.94 on CAMK1D (cell material: Jurkat cells). Further, the negative-log IC50 (pIC50) on CAMK1D (cell material: Jurkat lysate) is < 4.52; at UniProt P23443 (cell material: Jurkat cells), 5.19; at UniProt P23443 (cell material: Jurkat lysate), < 4.52; on ITK (cell material: Jurkat cells), 6.78; on ITK (cell material: Jurkat lysate), 5.4; at TLK2, < 4.52. The pIC50 on PRKCH (cell material: Jurkat lysate) is < 4.52; at RAF1 (cell material: Jurkat cells), < 4.52; at TRRAP, < 4.52; on RNASEL, < 4.52; at BLK (cell material: Jurkat cells) it was 6.82; at BLK (cell material: Jurkat lysate), 6.51.
